Reference: ChEMBL document CHEMBL1201862, “PubChem BioAssay data set” (2004)
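Briefly, cells in 96-well plates were exposed to five compound concentrations for 48 h, and endpoints were estimated by linear interpolation. Abbreviation: GI50, concentration required for 50% inhibition of growth.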 The source made the active and inactive calls. Rule as the data show it: active = GI50 up to about 1.1 µM and inactive = higher.

Assays:
Experiment in all cases: NCI-60 cell line screen, 48 h
HCT-15 = test system: HCT-15
DU-145 = test system: DU-145
Hs-578T = test system: Hs-578T
786-0 = test system: 786-0
SF-539 = test system: SF-539
SN12C = test system: SN12C
MDA-N = test system: MDA-N
NCI/ADR-RES = test system: NCI/ADR-RES
BT-549 = test system: BT-549
COLO 205 = test system: COLO 205
CAKI-1 = test system: CAKI-1
ACHN = test system: ACHN
T47D = test system: T47D
NCI-H23 = test system: NCI-H23
Malme-3M = test system: Malme-3M
TK-10 = test system: TK-10
IGROV-1 = test system: IGROV-1
MCF7 = test system: MCF7
HL-60 = test system: HL-60
HCC 2998 = test system: HCC 2998

With `NNC(=O)c1cc(=O)[nH][nH]1` the GI50 (HCT-15) was over 100 µM, the GI50 (DU-145) was > 100 µM (inactive) and the GI50 (Hs-578T) was > 100 µM (inactive). For the same compound, the GI50 (786-0) was > 100 µM (inactive), the GI50 (SF-539) was > 100 µM (inactive) and the GI50 (SN12C) was > 100 µM (inactive). For the same compound, the GI50 (MDA-N) was > 100 µM (inactive), the GI50 (NCI/ADR-RES) was > 100 µM (inactive) and the GI50 (BT-549) was > 100 µM (inactive). For the same compound, the GI50 (COLO 205) was > 100 µM (inactive), the GI50 (CAKI-1) was > 100 µM (inactive) and the GI50 (ACHN) was > 100 µM (inactive). For the same compound, the GI50 (T47D) was > 100 µM (inactive), the GI50 (NCI-H23) was > 100 µM (inactive) and the GI50 (Malme-3M) was > 100 µM (inactive). For the same compound, the GI50 (TK-10) was > 100 µM (inactive), the GI50 (IGROV-1) was > 100 µM (inactive) and the GI50 (MCF7) was > 100 µM (inactive).
For `Cc1ccccc1/N=N/c1c(O)ccc2ccccc12`, the GI50 (HCT-15) was over 100 µM, the GI50 (DU-145) was > 100 µM (inactive) and the GI50 (Hs-578T) was 49.3 µM (inactive). The GI50 (HL-60) was > 100 µM (inactive), the GI50 (786-0) was 48.9 µM (inactive) and the GI50 (SN12C) was > 100 µM (inactive). For the same compound, the GI50 (MDA-N) was > 100 µM (inactive), the GI50 (NCI/ADR-RES) was > 100 µM (inactive) and the GI50 (BT-549) was > 100 µM (inactive). The GI50 (COLO 205) was > 100 µM (inactive), the GI50 (CAKI-1) was > 100 µM (inactive) and the GI50 (ACHN) was > 100 µM (inactive). The GI50 (T47D) was 59.3 µM (inactive), the GI50 (NCI-H23) was > 100 µM (inactive) and the GI50 (Malme-3M) was > 100 µM (inactive). For the same compound, the GI50 (TK-10) was > 100 µM (inactive) and the GI50 (IGROV-1) was 59.2 µM (inactive).
`COC(=O)C1=C(C(=O)OC)SC(=C2SC3=C(SC(=C4SCCS4)S3)S2)S1` was tested, and the GI50 (DU-145) was > 100 µM (inactive), the GI50 (Hs-578T) was 86.5 µM (inactive) and the GI50 (HL-60) was > 100 µM (inactive). For the same compound, the GI50 (786-0) was > 100 µM (inactive), the GI50 (SN12C) was > 100 µM (inactive) and the GI50 (MDA-N) was > 100 µM (inactive). For the same compound, the GI50 (NCI/ADR-RES) was > 100 µM (inactive), the GI50 (BT-549) was > 100 µM (inactive) and the GI50 (COLO 205) was > 100 µM (inactive). The GI50 (CAKI-1) was > 100 µM (inactive), the GI50 (ACHN) was > 100 µM (inactive) and the GI50 (T47D) was > 100 µM (inactive). For the same compound, the GI50 (NCI-H23) was > 100 µM (inactive), the GI50 (Malme-3M) was > 100 µM (inactive) and the GI50 (TK-10) was > 100 µM (inactive). For the same compound, the GI50 (IGROV-1) was > 100 µM (inactive) and the GI50 (MCF7) was > 100 µM (inactive).
With `Cn1nc2ccc(Nc3cc(=O)[nH]c4ccc5nn(C)nc5c34)cc2n1` the GI50 (HCT-15) was over 100 µM, the GI50 (DU-145) was > 100 µM (inactive) and the GI50 (Hs-578T) was > 100 µM (inactive). The GI50 (786-0) was > 100 µM (inactive), the GI50 (SF-539) was > 100 µM (inactive) and the GI50 (SN12C) was > 100 µM (inactive). The GI50 (NCI/ADR-RES) was > 100 µM (inactive), the GI50 (BT-549) was > 100 µM (inactive) and the GI50 (COLO 205) was > 100 µM (inactive). For the same compound, the GI50 (HCC 2998) was > 100 µM (inactive), the GI50 (CAKI-1) was > 100 µM (inactive) and the GI50 (ACHN) was > 100 µM (inactive). The GI50 (T47D) was > 100 µM (inactive), the GI50 (NCI-H23) was > 100 µM (inactive) and the GI50 (Malme-3M) was > 100 µM (inactive). The GI50 (TK-10) was > 100 µM (inactive), the GI50 (IGROV-1) was 50.5 µM (inactive) and the GI50 (MCF7) was > 100 µM (inactive).
In the case of `O=C(c1ccccc1)c1ccc2[nH]c(-c3c(Cl)c(Cl)c(Cl)c(Cl)c3C(=O)Nc3ccco3)nc2c1`, the GI50 (HCT-15) is reported as 27.2 µM, the GI50 (DU-145) is reported as 78.9 µM (inactive) and the GI50 (HL-60) is reported as 24.2 µM (inactive). For the same compound, the GI50 (786-0) was 96.2 µM (inactive), the GI50 (SN12C) was 48.2 µM (inactive) and the GI50 (MDA-N) was 15.3 µM (inactive). The GI50 (NCI/ADR-RES) was 16.4 µM (inactive), the GI50 (BT-549) was 22.2 µM (inactive) and the GI50 (COLO 205) was 45.5 µM (inactive). The GI50 (HCC 2998) was 15.4 µM (inactive), the GI50 (CAKI-1) was > 100 µM (inactive) and the GI50 (ACHN) was > 100 µM (inactive). For the same compound, the GI50 (T47D) was 37 µM (inactive), the GI50 (NCI-H23) was 4.86 µM (inactive) and the GI50 (TK-10) was 39.7 µM (inactive). For the same compound, the GI50 (IGROV-1) was 41.1 µM (inactive) and the GI50 (MCF7) was 24.8 µM (inactive).
With `O[C@H]1[C@H](O)[C@@H](O)[C@H](O)[C@@H](O)[C@H]1O` [INOSITOL] the GI50 (HCT-15) was over 1000 µM, the GI50 (DU-145) was > 1000 µM (inactive) and the GI50 (Hs-578T) was > 1000 µM (inactive). For the same compound, the GI50 (786-0) was > 1000 µM (inactive), the GI50 (SF-539) was > 1000 µM (inactive) and the GI50 (SN12C) was > 1000 µM (inactive). For the same compound, the GI50 (NCI/ADR-RES) was > 1000 µM (inactive), the GI50 (BT-549) was > 1000 µM (inactive) and the GI50 (COLO 205) was > 1000 µM (inactive). The GI50 (HCC 2998) was > 1000 µM (inactive), the GI50 (ACHN) was > 1000 µM (inactive) and the GI50 (T47D) was > 1000 µM (inactive). For the same compound, the GI50 (NCI-H23) was > 1000 µM (inactive), the GI50 (Malme-3M) was > 1000 µM (inactive) and the GI50 (TK-10) was > 1000 µM (inactive). For the same compound, the GI50 (IGROV-1) was > 1000 µM (inactive) and the GI50 (MCF7) was > 1000 µM (inactive).
With `COC1=CC2=NCCc3n[nH]c(c32)C1=O` the GI50 (HCT-15) was 46.3 µM, the GI50 (Hs-578T) was 29.8 µM (inactive) and the GI50 (HL-60) was 0.0482 µM (active). For the same compound, the GI50 (786-0) was 18.5 µM (inactive), the GI50 (SF-539) was 17.3 µM (inactive) and the GI50 (SN12C) was 13.7 µM (inactive). For the same compound, the GI50 (MDA-N) was 10.9 µM (inactive), the GI50 (NCI/ADR-RES) was 29.1 µM (inactive) and the GI50 (BT-549) was 16.9 µM (inactive). For the same compound, the GI50 (COLO 205) was 17.7 µM (inactive), the GI50 (HCC 2998) was 47.1 µM (inactive) and the GI50 (ACHN) was 19.2 µM (inactive). The GI50 (T47D) was 2.9 µM (inactive), the GI50 (NCI-H23) was 14.4 µM (inactive) and the GI50 (Malme-3M) was 16.3 µM (inactive). For the same compound, the GI50 (TK-10) was 22.1 µM (inactive), the GI50 (IGROV-1) was 19.1 µM (inactive) and the GI50 (MCF7) was 4.86 µM (inactive).
In the case of `O=C(/C=C/c1ccc(Oc2cc(C(=O)/C=C/c3ccc(O)cc3)c(O)cc2O)cc1)c1ccc(O)cc1O` [RHUSCHALCONE II], the GI50 (HCT-15) is reported as 5.97 µM, the GI50 (DU-145) is reported as 3.38 µM (inactive) and the GI50 (Hs-578T) is reported as 7.28 µM (inactive). For the same compound, the GI50 (HL-60) was 4.14 µM (inactive), the GI50 (786-0) was 3.59 µM (inactive) and the GI50 (SF-539) was 2.43 µM (inactive). The GI50 (SN12C) was 4.41 µM (inactive), the GI50 (NCI/ADR-RES) was 3.85 µM (inactive) and the GI50 (BT-549) was 9.84 µM (inactive). The GI50 (COLO 205) was 2.61 µM (inactive), the GI50 (CAKI-1) was 4.14 µM (inactive) and the GI50 (ACHN) was 9.29 µM (inactive). The GI50 (T47D) was 5.93 µM (inactive), the GI50 (NCI-H23) was 6.19 µM (inactive) and the GI50 (Malme-3M) was 10.6 µM (inactive). The GI50 (TK-10) was 3.07 µM (inactive), the GI50 (IGROV-1) was 3.38 µM (inactive) and the GI50 (MCF7) was 4.26 µM (inactive).
